Assay results: patent US20240301409A1, “Chemically Modified Small Activating RNA” (RACTIGEN THERAPEUTICS, priority 2021, published 2024)

System: J82 cells
Assay: Cellular proliferation assay (CCK8) in J82 cells, combined with Mitomycin C or valrubicin
Type: cell-based, human
Details: for Combination Index (CI) / relative proliferation proportion of cells: J82 cells
Experimental: J82 cells were transfected with RAG1-40-31 at concentrations of 0.1, 0.5, 1, 5, 10, 25 and 50 nM for 24 hours, and then Mitomycin C at concentrations of 1, 10, 100, 1000 and 10000 nM was added. The combined treatment was carried out with concentrations in pairs. After treatment, the proliferation of cells was detected using CCK8 kit. FIGS. 14A-14B show the relative proliferation proportion of J82 cells after the combined treatment with chemically modified saRNA RAG1-40-31 and valrubicin. […] Control and DMSO are the blank transfection control and the solvent for dilution control, respectively.
J82 cells were transfected with RAG1-40-31 at concentrations of 0.1, 0.5, 1, 5, 10, 25 and 50 nM for 24 hours, and then valrubicin at concentrations of 1, 10, 100, 1000 and 10000 nM was added. The combined treatment was carried out with concentrations in pairs. After treatment, the cellular proliferation was detected by CCK8 kit. FIGS. 15A-15B show the relative proliferation proportion of T24 cells after the combined treatment with chemically modified saRNA RAG1-40-31 and Mitomycin C. […] Control and DMSO are the blank transfection control and the solvent for dilution control, respectively.
Human bladder cancer cells Ku-7-LG (ATCC), J82 (ATCC) and T24 (ATCC) were cultured in McCoy medium (Gibco) comprising 10% calf serum (Sigma-Aldrich) and 1% penicillin/Streptomycin (Gibco). Cells were cultured at 37° C. under 5% CO2. Ku-7-LG, J82 and T24 cells were plated into 12-well plates at 10×10^4 cells per well, transfected with the small RNA at a concentration of 10 nM (unless otherwise specified) for three days, using RNAiMax (Invitrogen, Carlsbad, CA) according to the manufacturer's instructions. Two replicate wells were set for each treatment.
Cells were plated in a 96-well plate at 2˜4×10^3 cells/well, cultured overnight, and transfected with the oligonucleotide duplexes. Three days after transfection, CCK8 (Dojindo) was used to detect cellular proliferation following manufacturer's instructions. The experimental steps are briefly described as follows: 10 μL of CCK8 solution was added to each well, incubated at 37° C. for 1 hour, and then the absorbance at 450 nm was measured using a microplate reader.
In this example, chemically modified saRNA RAG1-40-31 was used in combination with clinical chemical agents to evaluate the suppressing effect of the combined agents on cancer cells.

[1] = RAG1-40-31 0.1 nM + MMC 1000 nM

## RAG1-40-31: saRNA duplex: sense fCfCAACUCAUUCUCCAAG*U*C (SEQ ID NO 16); antisense U*A*fCfUfUGGAGAAfUGAGfUfUGG*fC*A (SEQ ID NO 12) (sense CCAACUCAUUCUCCAAGUC; antisense UACUUGGAGAAUGAGUUGGCA; 2'-F and phosphorothioate modifications; modified_base (1)..(2) (1,2)=2′-fluoro; modified_base (17)..(19) (17,18,19)=phosphorothioate (PS) backbone modification; modified_base (2)..(21) (2,3,19,20,21)=phosphorothioate (PS) backbone modification; modified_base (3)..(20) (3,4,5,12,16,17,20)=2′-fluoro)
RAG1-40-31 0.1 nM + MMC 1 nM
  Combination Index (CI): 0.08
  Relative proliferation proportion of J82 cells: 74.3%
RAG1-40-31 0.1 nM + MMC 10 nM
  Combination Index (CI): 0.42
  Relative proliferation proportion of J82 cells: 71.5%
RAG1-40-31 0.1 nM + MMC 100 nM
  Combination Index (CI): 0.47
  Relative proliferation proportion of J82 cells: 32.9%
[1]
  Combination Index (CI): 0.73
  Relative proliferation proportion of J82 cells: 10.8%
RAG1-40-31 0.1 nM + MMC 10000 nM
  Combination Index (CI): 0.50
RAG1-40-31 0.1 nM + valrubicin 1 nM
  Combination Index (CI): 0.10
RAG1-40-31 0.1 nM + valrubicin 10 nM
  Combination Index (CI): 0.42
RAG1-40-31 0.1 nM + valrubicin 100 nM
  Combination Index (CI): 0.85
RAG1-40-31 0.1 nM + valrubicin 1000 nM
  Combination Index (CI): 0.18
RAG1-40-31 0.1 nM + valrubicin 10000 nM
  Combination Index (CI): 0.19
RAG1-40-31 0.5 nM + MMC 1 nM
  Combination Index (CI): 0.17
RAG1-40-31 0.5 nM + MMC 10 nM
  Combination Index (CI): 0.47
RAG1-40-31 0.5 nM + MMC 100 nM
  Combination Index (CI): 0.54
RAG1-40-31 0.5 nM + MMC 1000 nM
  Combination Index (CI): 0.75
RAG1-40-31 0.5 nM + MMC 10000 nM
  Combination Index (CI): 0.25
RAG1-40-31 0.5 nM + valrubicin 1 nM
  Combination Index (CI): 0.18
RAG1-40-31 0.5 nM + valrubicin 10 nM
  Combination Index (CI): 0.08
RAG1-40-31 0.5 nM + valrubicin 100 nM
  Combination Index (CI): 1.31
RAG1-40-31 0.5 nM + valrubicin 1000 nM
  Combination Index (CI): 0.14
RAG1-40-31 0.5 nM + valrubicin 10000 nM
  Combination Index (CI): 0.11
RAG1-40-31 1 nM + MMC 1 nM
  Combination Index (CI): 0.13
RAG1-40-31 1 nM + MMC 10 nM
  Combination Index (CI): 0.58
RAG1-40-31 1 nM + MMC 100 nM
  Combination Index (CI): 0.52
RAG1-40-31 1 nM + MMC 1000 nM
  Combination Index (CI): 0.76
RAG1-40-31 1 nM + MMC 10000 nM
  Combination Index (CI): 0.46
RAG1-40-31 1 nM + valrubicin 1 nM
  Combination Index (CI): 0.26
RAG1-40-31 1 nM + valrubicin 10 nM
  Combination Index (CI): 0.12
RAG1-40-31 1 nM + valrubicin 100 nM
  Combination Index (CI): 0.30
RAG1-40-31 1 nM + valrubicin 1000 nM
  Combination Index (CI): 0.12
RAG1-40-31 1 nM + valrubicin 10000 nM
  Combination Index (CI): 0.11
RAG1-40-31 5 nM + MMC 1 nM
  Combination Index (CI): 0.29
RAG1-40-31 5 nM + MMC 10 nM
  Combination Index (CI): 0.32
RAG1-40-31 5 nM + MMC 100 nM
  Combination Index (CI): 0.40
RAG1-40-31 5 nM + MMC 1000 nM
  Combination Index (CI): 0.43
RAG1-40-31 5 nM + MMC 10000 nM
  Combination Index (CI): 0.41
RAG1-40-31 5 nM + valrubicin 1 nM
  Combination Index (CI): 0.12
RAG1-40-31 5 nM + valrubicin 10 nM
  Combination Index (CI): 0.32
RAG1-40-31 5 nM + valrubicin 100 nM
  Combination Index (CI): 0.61
RAG1-40-31 5 nM + valrubicin 1000 nM
  Combination Index (CI): 0.13
RAG1-40-31 5 nM + valrubicin 10000 nM
  Combination Index (CI): 0.06
RAG1-40-31 10 nM + MMC 1 nM
  Combination Index (CI): 0.40
RAG1-40-31 10 nM + MMC 10 nM
  Combination Index (CI): 0.47
RAG1-40-31 10 nM + MMC 100 nM
  Combination Index (CI): 0.37
RAG1-40-31 10 nM + MMC 1000 nM
  Combination Index (CI): 0.41
RAG1-40-31 10 nM + MMC 10000 nM
  Combination Index (CI): 0.29
RAG1-40-31 10 nM + valrubicin 1 nM
  Combination Index (CI): 0.14
RAG1-40-31 10 nM + valrubicin 10 nM
  Combination Index (CI): 0.22
RAG1-40-31 10 nM + valrubicin 100 nM
  Combination Index (CI): 0.37
RAG1-40-31 10 nM + valrubicin 1000 nM
  Combination Index (CI): 0.11
RAG1-40-31 10 nM + valrubicin 10000 nM
  Combination Index (CI): 0.04
RAG1-40-31 25 nM + MMC 1 nM
  Combination Index (CI): 0.32
RAG1-40-31 25 nM + MMC 10 nM
  Combination Index (CI): 0.50
RAG1-40-31 25 nM + MMC 100 nM
  Combination Index (CI): 0.37
RAG1-40-31 25 nM + MMC 1000 nM
  Combination Index (CI): 0.28
RAG1-40-31 25 nM + MMC 10000 nM
  Combination Index (CI): 0.09
RAG1-40-31 25 nM + valrubicin 1 nM
  Combination Index (CI): 0.14
RAG1-40-31 25 nM + valrubicin 10 nM
  Combination Index (CI): 0.10
RAG1-40-31 25 nM + valrubicin 100 nM
  Combination Index (CI): 0.16
RAG1-40-31 25 nM + valrubicin 1000 nM
  Combination Index (CI): 0.05
RAG1-40-31 25 nM + valrubicin 10000 nM
  Combination Index (CI): 0.02
RAG1-40-31 25 nM and 50 nM + Mitomycin C 1, 10, 100, 1000 and 10000 nM
  relative proliferation proportion of cells: lower than 26%
RAG1-40-31 25 nM and 50 nM + Valrubicin 1, 10, 100, 1000 and 10000 nM
  relative proliferation proportion of cells: lower than 30%
RAG1-40-31 50 nM + MMC 1 nM
  Combination Index (CI): 0.96
RAG1-40-31 50 nM + MMC 10 nM
  Combination Index (CI): 0.98
RAG1-40-31 50 nM + MMC 100 nM
  Combination Index (CI): 0.44
RAG1-40-31 50 nM + MMC 1000 nM
  Combination Index (CI): 0.19
RAG1-40-31 50 nM + MMC 10000 nM
  Combination Index (CI): 0.15
RAG1-40-31 50 nM + valrubicin 1 nM
  Combination Index (CI): 0.11
RAG1-40-31 50 nM + valrubicin 10 nM
  Combination Index (CI): 0.14
RAG1-40-31 50 nM + valrubicin 100 nM
  Combination Index (CI): 0.22
RAG1-40-31 50 nM + valrubicin 1000 nM
  Combination Index (CI): 0.09
RAG1-40-31 50 nM + valrubicin 10000 nM
  Combination Index (CI): 0.02
RAG1-40-31 0.1-50 nM + Mitomycin C 100, 1000 and 10000 nM
  relative proliferation proportion of cells: lower than 35%
RAG1-40-31 0.1-50 nM + Valrubicin 1000 nM and 10000 nM
  relative proliferation proportion of cells: lower than 30%
RAG1-40-31 5-50 nM + Mitomycin C 1, 10, 100, 1000 and 10000 nM
  relative proliferation proportion of cells: lower than 43%
J82 tumor cells
  effect of combined use with Mitomycin C or valrubicin, in words: synergistic effect
